# What was measured:
# [1] = tested on: vascular smooth muscle cells; experiment: Proliferation of vascular smooth muscle cells in culture (BrdU); assay type: cell-based; details: 10^-5 M to 10^-8 M; for ABC-NP and ABC-NP1 all concentrations about the same effect, FIG. 21
# Text: FIG. 21 is a graph plotting levels of proliferation of vascular smooth muscle cells after treatment with 10^−5 M, 10^−6 M, 10^−7 M, or 10^−8 M ANP, BNP, CNP, ABC-NP, or ABC-NP1, measured by assessing bromodeoxyuridine (BrdU) levels.
# normal anesthetized dogs = experiment: Cardiorenal and humoral actions of intravenous bolus in normal anesthetized dogs; assay type: in vivo, dog; details: i.v. bolus 25 microgram/Kg; for reduction in right atrial pressure (RAP) / reduction in pulmonary capillary wedge pressure (PCWP): ABC-NP1 compared with ABC-NP; for reduction in right atrial pressure (RAP): FIG. 6; for reduction in pulmonary capillary wedge pressure (PCWP): FIG. 7; for urine flow (UV), diuresis: n=5, FIG. 3; for urinary sodium excretion (UNaV), natriuresis: n=5, FIG. 4; for mean arterial blood pressure (MAP): n=5, FIG. 5
# Description: (§1) Cardiorenal and humoral actions of intravenous bolus administration of ABC-NP1 (n=5) and ABC-NP (n=5) at 25 microgram/Kg were evaluated in two separate groups of normal anesthetized dogs. The cGMP response of both peptides also was assessed in HAEC, HCF, and isolated canine glomeruli.
# [2] = tested on: human aortic endothelial cells (HAEC); experiment: cGMP generation in cultured human aortic endothelial cells (HAEC); assay type: cell-based; details: FIG. 9, p<0.05
# Text: (§2) Variant NPs having conservative and/or non-conservative substitutions (e.g., with respect to any of SEQ ID NOS:1 to 51), as well as fragments of any of SEQ ID NOS:1 to 51, fragments of variants of any of SEQ ID NOS:1 to 51, and polypeptides comprising any of SEQ ID NOS:1 to 51, variants or fragments of any of SEQ ID NOS:1 to 51, or fragments of variants of any of SEQ ID NOS:1 to 51, can be screened for biological activity using any of a number of assays, including those described herein. For example, the activity of a NP as described herein can be evaluated in vitro by testing its effect on cGMP production in cultured cells (e.g., cultured cardiac fibroblasts, aortic endothelial cells, or glomerular cells, as described in the Example herein). Cells can be exposed to a NP (e.g., 10^−9 to 10^−4 M NP), and samples can be assayed to evaluate the NP effects on cGMP generation. cGMP generation can be detected and measured using, for example, a competitive RIA cGMP kit (Perkin-Elmer, Boston, Mass.).
# as §1
# [3] = tested on: dogs with rapid ventricular pacing-induced overt heart failure with cardiorenal dysfunction; experiment: Cardiorenal and humoral actions of intravenous infusions in dogs with pacing-induced overt heart failure; assay type: in vivo, dog; details: for glomerular filtration rate (GFR): FIG. 17; for renal blood flow: FIG. 18; for MAP: FIG. 12; for RAP: all doses (2, 10 and 100 pmol/kg/minute), FIG. 13; for PCWP: FIG. 14; for urinary sodium excretion (UNaV) / urine flow (UV): increasing doses 2, 10, 100 pmol/kg/minute
# Description: The cardiorenal and humoral actions of intravenous infusions of ABC-NP and ABC-NP1 at 2, 10, and 100 pmol/kg/minute were examined in seven dogs with rapid ventricular pacing-induced overt heart failure with cardiorenal dysfunction (240 bpm for 10 days). As shown in the study protocol depicted in FIG. 11, baseline values for MAP, RAP, PCWP, UNaV, UV, GFR, renal blood flow, urinary cGMP excretion, plasma and cGMP were measured, and animals were then infused with 2 pmol/kg/minute ABC-NP or ABC-NP1 for a lead in period of 15 minutes followed by 30 minutes, then infusion with 10 pmol/kg/minute ABC-NP or ABC-NP1 for a lead in period of 15 minutes followed by 30 minutes, and finally infusion with 100 pmol/kg/minute ABC-NP or ABC-NP1 for a lead in period of 15 minutes followed by 30 minutes, and washout for 30 minutes. Pressure measurements were taken at the end of each NP infusion period, and blood and urine samples also were collected for analysis.
# [4] = tested on: human cardiac fibroblasts (HCF); experiment: cGMP generation in cultured human cardiac fibroblasts (HCF); assay type: cell-based; details: FIG. 8, p<0.05
# Text: as §2, §1
# [5] = tested on: isolated canine glomeruli; experiment: cGMP generation in isolated canine glomeruli; assay type: cell-based; details: comparison between the two peptides, FIG. 10
# Text: A NP as provided herein can function through one or more of the guanylyl cyclase receptors through which the native NPs function. For example, in some embodiments, a NP as provided herein can bind to and function through the NPR-A receptor through which ANP and BNP function. In some cases, a NP as provided herein can function through the NPR-B receptor through which CNP functions. Further, in some cases, a NP as provided herein can bind to and function through more than one guanylyl cyclase receptor, including NPR-A and NPR-B, for example. Methods for evaluating which receptor is involved in function of a particular NP are known in the art. For example, glomeruli, which contain both NPR-A and NPR-B, can be isolated (e.g., from a laboratory animal such as a dog) and incubated with a NP (e.g., a native, chimeric, or mutated NP), and cGMP levels can be measured. Glomeruli can be pretreated with antagonists of NPR-A or NPR-B to determine whether cGMP production stimulated by a NP through one or the other receptor can be attenuated.
# as §1
# [6] = previously shown, cited from earlier work
# [7] = after administration to a mammal; cited from earlier work
# [8] = HF dogs, highest dose (100 pmol/kg/minute), FIG. 19
# [9] = HF dogs, highest dose (100 pmol/kg/minute), FIG. 20
# [10] = HF dogs, i.v. infusion, highest dose (100 pmol/kg/minute)
# [11] = HF dogs, two highest doses (10 and 100 pmol/kg/minute)
Molecule,proliferation of vascular smooth muscle cells (BrdU levels) [1],reduction in right atrial pressure (RAP) (normal anesthetized dogs),reduction in pulmonary capillary wedge pressure (PCWP) (normal anesthetized dogs),"urine flow (UV), diuresis (normal anesthetized dogs)","urinary sodium excretion (UNaV), natriuresis (normal anesthetized dogs)",mean arterial blood pressure (MAP) (normal anesthetized dogs),cGMP generation [2],"urinary cGMP excretion [3, 8]","plasma cGMP [3, 9]","RAP ([3]; HF dogs, i.v. infusion)","urinary sodium excretion (UNaV) ([3]; HF dogs, FIG. 15)","urine flow (UV) ([3]; HF dogs, FIG. 16)",cGMP generation [4],cGMP generation [5],further results
B-type natriuretic peptide [BNP],decreased as the concentration decreased,–,–,–,–,–,–,–,–,–,–,–,–,–,–
"RMDRIGLSKGCFGLKLDRIREASGLGCKVLRRH [ABC-NP, ANP residues 11-15, mutated CNP in which GSM15-17 were changed to REA, and six C-terminal amino acids of BNP]",reduced proliferation,reduction,reduction,resulted in diuresis,natriuresis,no change,minimal,significantly increased,significantly increased,increased,increasing effects,increasing effects,minimal,similar,"glomerular filtration rate (GFR) ([3]; HF dogs, 2, 10, 100 pmol/kg/minute, significant increase only at highest dose): significance was not achieved with ABC-NP until the highest dose was used; renal blood flow ([3]; HF dogs, 2, 10 and 100 pmol/kg/minute): no effect; MAP ([3]; HF dogs, i.v. infusion 2, 10 and 100 pmol/kg/minute): no effect; PCWP ([3]; HF dogs, i.v. infusion, higher doses (10 and 100 pmol/kg/minute)): did not affect; PCWP ([3]; HF dogs, i.v. infusion, lowest dose (2 pmol/kg/minute), vs baseline): reduced PCWP as compared to baseline"
"CC[C@H](C)[C@@H]1NC(=O)[C@H](CCCNC(=N)N)NC(=O)[C@H](CC(=O)O)NC(=O)[C@H](CCSC)NC(=O)[C@H](CCCNC(=N)N)NC(=O)CNC(=O)CNC(=O)[C@H](Cc2ccccc2)NC(=O)[C@@H](NC(=O)[C@H](CO)NC(=O)[C@H](CO)NC(=O)[C@H](CCCNC(=N)N)NC(=O)[C@H](CCCNC(=N)N)NC(=O)[C@H](CC(C)C)NC(=O)[C@@H](N)CO)CSSC[C@@H](C(=O)N[C@@H](CC(N)=O)C(=O)N[C@@H](CO)C(=O)N[C@@H](Cc2ccccc2)C(=O)N[C@@H](CCCNC(=N)N)C(=O)N[C@@H](Cc2ccc(O)cc2)C(=O)O)NC(=O)CNC(=O)[C@H](CC(C)C)NC(=O)CNC(=O)[C@H](CO)NC(=O)[C@H](CCC(N)=O)NC(=O)[C@H](C)NC(=O)CNC1=O [ANP, atrial natriuretic peptide]",decreased as the concentration decreased,–,–,–,–,–,–,–,–,–,–,–,–,–,–
RMDRIGLSKGCFGLKLDRIGSMSGLGCKVLRRH [ABC-NP1],reduced proliferation,significantly greater,significantly greater,resulted in diuresis,natriuresis,significant decrease,significantly higher,significantly increased,significantly increased,significantly reduced,increasing effects,increasing effects,significantly higher,similar,"renal excretory actions ([6]; result of N- and C-terminal alterations): potent renal excretory actions; cardiac actions ([6]; similar to CNP): cardiac unloading actions; hypotensive effects ([6]; similar to CNP): mild hypotensive effects; effect on UNaV relative to ABC-NP ([3]; HF dogs, ABC-NP1 vs ABC-NP, FIG. 15): 5- to 6.5 fold; effect on UV relative to ABC-NP ([3]; HF dogs, ABC-NP1 vs ABC-NP, FIG. 16): 1.5- to 2 fold; effect on urinary cGMP excretion relative to ABC-NP ([3]; HF dogs, highest dose, ABC-NP1 vs ABC-NP, FIG. 19): about a two-fold greater effect; effect on plasma cGMP relative to ABC-NP ([3]; HF dogs, highest dose, ABC-NP1 vs ABC-NP, FIG. 20): about a two-fold greater effect; MAP [3, 10]: significantly reduced; PCWP [3, 10]: significantly reduced; glomerular filtration rate (GFR) [3, 11]: significant increases; renal blood flow [3, 11]: significant increases"
C-type natriuretic peptide [CNP],decreased as the concentration decreased,–,–,–,–,–,–,–,–,–,–,–,–,–,half-life [7]: about a minute and a half

# — patent US20120053123A1, “NATRIURETIC POLYPEPTIDES HAVING MUTATIONS WITHIN THEIR DISULFIDE RINGS” (priority 2009, published 2012)
